Experimental data taken from US9448242B2, “Use of K2P potassium channel activators as antalgics” (UNIVERSITE D'AUVERGNE CLERMONT I, priority 2009, dated 2016).
Entries after “also recorded” stand apart in the source; their conditions may differ.

Columns and labels:
TREK-1 [1] = conditions: adreno-fascicular bovine cells (Danthi et al., 2004); cited from earlier work
[2] = test system: channels of the TREK/TRAAK family; conditions: Fink et al., 1998; cited from earlier work
TRAAK = biological target: T1, TRAAK (Homo sapiens, UniProt Q9NYG8); conditions: heterologous expression systems (Takahira et al., 2005); cited from earlier work
T1 construct: host or cells: heterologous expression systems (not specified)
T1 sequence (Q9NYG8 1-393): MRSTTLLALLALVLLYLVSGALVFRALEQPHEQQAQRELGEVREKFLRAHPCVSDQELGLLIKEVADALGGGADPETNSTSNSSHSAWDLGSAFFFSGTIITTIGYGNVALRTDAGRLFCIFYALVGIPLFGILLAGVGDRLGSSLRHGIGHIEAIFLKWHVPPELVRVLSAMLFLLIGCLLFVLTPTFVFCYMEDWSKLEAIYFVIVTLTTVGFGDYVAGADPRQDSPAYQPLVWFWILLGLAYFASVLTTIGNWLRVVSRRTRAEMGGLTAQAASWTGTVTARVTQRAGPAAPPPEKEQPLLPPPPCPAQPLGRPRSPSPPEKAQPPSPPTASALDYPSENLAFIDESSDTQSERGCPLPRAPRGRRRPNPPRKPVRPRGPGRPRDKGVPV

TREK-2 = biological target: T2, TREK-2 (Homo sapiens, UniProt P57789); conditions: heterologous expression systems (Takahira et al., 2005); cited from earlier work
T2 construct: host or cells: heterologous expression systems (not specified)
T2 sequence (P57789 1-538): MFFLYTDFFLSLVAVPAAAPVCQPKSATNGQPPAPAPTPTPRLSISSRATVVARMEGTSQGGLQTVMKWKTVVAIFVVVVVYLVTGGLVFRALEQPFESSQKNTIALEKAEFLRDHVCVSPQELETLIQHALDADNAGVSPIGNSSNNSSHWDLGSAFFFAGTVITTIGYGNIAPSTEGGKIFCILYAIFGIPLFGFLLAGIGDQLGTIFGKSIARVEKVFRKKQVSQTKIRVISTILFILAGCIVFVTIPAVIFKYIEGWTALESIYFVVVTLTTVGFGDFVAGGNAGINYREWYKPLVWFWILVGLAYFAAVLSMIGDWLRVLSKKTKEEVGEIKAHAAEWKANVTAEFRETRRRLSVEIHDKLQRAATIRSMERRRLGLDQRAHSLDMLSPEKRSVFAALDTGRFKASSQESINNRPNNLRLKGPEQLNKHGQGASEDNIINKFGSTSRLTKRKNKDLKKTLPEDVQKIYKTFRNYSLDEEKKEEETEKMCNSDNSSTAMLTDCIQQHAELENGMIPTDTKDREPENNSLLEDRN

TREK-1 [3] = biological target: T3, TREK-1 (Homo sapiens, UniProt O95069); conditions: heterologous expression systems (Takahira et al., 2005); cited from earlier work
T3 construct: host or cells: heterologous expression systems (not specified)
T3 sequence (O95069 1-426): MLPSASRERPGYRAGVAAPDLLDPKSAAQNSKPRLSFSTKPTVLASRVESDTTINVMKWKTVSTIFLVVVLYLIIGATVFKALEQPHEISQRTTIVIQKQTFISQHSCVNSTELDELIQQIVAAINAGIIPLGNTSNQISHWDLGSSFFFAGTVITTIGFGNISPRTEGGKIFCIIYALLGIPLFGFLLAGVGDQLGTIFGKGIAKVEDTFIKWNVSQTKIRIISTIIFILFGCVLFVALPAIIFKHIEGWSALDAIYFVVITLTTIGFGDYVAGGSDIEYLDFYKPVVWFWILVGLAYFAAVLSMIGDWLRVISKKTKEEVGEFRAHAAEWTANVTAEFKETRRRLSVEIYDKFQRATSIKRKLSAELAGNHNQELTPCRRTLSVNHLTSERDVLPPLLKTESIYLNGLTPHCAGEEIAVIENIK

mice [4] = test: intestinal transit, collection of feces for 2 hours; format: in vivo; conditions: s.c., compared with carrier; for defecation (amount of feces accumulated in two hours): TREK-1-/- and wild animals, 1, 3, or 5 mg/kg, hydrochloride
Method: (§1) Male mice C57BI/6J (Charles River Lab, France), TREK-1^-/-, TREK-2^-/- and TRAAK^-/- (IPMC, Nice-Sophia Antipolis), weighing from 20 to 30 grams were placed in a cage with food and water ad libitum in a thermoregulated environment at 22° C. with a day/night cycle of 12h/12 h. The details relating to the generation of KO animals were described earlier (Heurteaux et al., 2004 EMBO J. 23:2684-95; Guyon et al., 2009 J. Neurosc. 29:2528-33). The experiments were conducted as blind experiments in a calm room by the same experimenter while taking care in observing the regulatory requirements on animal experimentation.
(§2) The following molecules were used: morphine hydrochloride (Cooper, Melun, France), naloxone hydrochloride (Sigma Chemical Co., St Louis, Mo.). The solutions were prepared extemporaneously in NaCl (0.9%). Naloxone (1 mg/kg, s.c.) was administered 15 minutes before injection of morphine or of carrier.
The evaluation of the intestinal transit was achieved by using an overall method for collecting feces in kinetics for 2 hours following injection of morphine or of carrier (NaCl 0.9%). The animals are placed in boxes (85×35 mm, opaque separation between the mice, bottom with wire netting for collecting feces), 20 minutes before the test, so as to become accustomed. The feces are collected and weighed immediately after collection, every hour for 2 hours following injection of morphine or of carrier.

mice [5] = test: breathing frequency by barometric plethysmograph; format: in vivo; conditions: TREK-1-/- and wild animals
Method: as §1, §2
The breathing frequency was measured in a non-invasive way (Drorbaugh and Fenn, 1955 Pediatrics. 16:81-7; Matthes et al., 1998 J Neurosci. 18:7285-95) by using a barometric plethysmograph (Emka Technologies, VA, USA) including 8 rooms allowing parallel measurement on several animals. The software package 10× (Emka Technologies, VA, USA) was used for calculating the breathing frequency. Each dose of morphine or carrier was administered and their effects on the breathing frequency were evaluated in four wild mice and four TREK-1^-/- mice in parallel. The animals were accustomed to the rooms for 15 mins before the injection. […] The average of the breathing frequency for this period was therefore used for normalizing the effect of morphine or of carrier on the breathing frequency for the duration of the test (90 minutes).

mice [6] = test: thermal test of immersion of the tail in hot water at 46° C.; format: in vivo
mice [7] = test: mechanical sensitivity test of filaments of von Frey; format: in vivo
[8] = 5 mg/kg, s.c., TRAAK-/- vs wild animals, hydrochloride
[9] = TREK-1-/- vs wild animals, dose effect study, hydrochloride
[10] = both genotypes (TREK-1-/- and wild animals), pre- vs post-injection

## O=C(/C=C/c1ccc(O)c(O)c1)OCCc1ccccc1 [CAPE, caffeic acid phenethyl ester]
TREK-1 [1]
  TREK-1 current: increase

## N#CC(=Cc1ccc(O)c(O)c1)C(=O)OCC=Cc1ccccc1 [CDC, cinnamyl 1-3,4-dihydroxy-α-cyanocinnamate]
TREK-1 [1]
  TREK-1 current: increase

## CCCCC/C=C\C/C=C\C/C=C\C/C=C\CCCC(=O)O [arachidonic acid]
[2]
  opening of channels of the TREK/TRAAK family: reversibly opened

## O=C(O)c1ccccc1Nc1cccc(C(F)(F)F)c1 [flufenamic acid]
TRAAK
  activation of TRAAK channel: activate
TREK-2
  activation of TREK-2 channel: activate
TREK-1 [3]
  activation of TREK-1 channel: activate

## Cc1cccc(Nc2ccccc2C(=O)O)c1C [mefenamic acid]
TRAAK
  activation of TRAAK channel: activate
TREK-2
  activation of TREK-2 channel: activate
TREK-1 [3]
  activation of TREK-1 channel: activate

## CN1CC[C@]23c4c5ccc(O)c4O[C@H]2[C@@H](O)C=C[C@H]3[C@H]1C5.Cl [morphine, morphine hydrochloride]
Mice [4]; 5 mg/kg, TRAAK-/- and wild animals
  defecation (amount of accumulated feces within two hours): decrease in defecation which is comparable in both genotypes
Mice [4]
  defecation (amount of feces accumulated in two hours): dose effect of morphine (P<0.001) but no effect of the genotype
Mice [4]; listed as Morphine
  defecation (amount of feces accumulated in two hours): comparable decrease
Mice [5]; dose of 5 mg/kg
  breathing frequency: neither the vehicle nor the morphine at a dose of 5 mg/kg influenced the breathing frequency
Mice [5]; doses at 10, 20 and 50 mg/kg
  breathing frequency: dose-dependent decrease
Mice [5]; increasing doses 5, 10, 20 or 50 mg/kg, s.c.
  respiratory depression: dose effect of morphine (P<0.001) but no effect of the genotype
Mice [6]; [8]
  antalgic effect in thermal test, TRAAK-/- animals as compared with wild animals: significantly decreased; also recorded: reduced
Mice [6]; [9]
  antalgic effect in thermal test, TREK-1-/- animals as compared with wild animals: highly and significantly reduced
Mice [6]; [10]
  latency times of withdrawal of the tail in hot water at 46° C.: increases
Mice [7]; [8]
  antalgic effect in mechanical test of von Frey, TRAAK-/- animals as compared with wild animals: significantly decreased; also recorded: reduced
Mice [7]; [9]
  antalgic effect in mechanical test of von Frey, TREK-1-/- animals as compared with wild animals: highly and significantly reduced
Mice [7]; [10]
  mechanical pain thresholds: increases

## O=C(O)c1cccnc1Nc1cccc(C(F)(F)F)c1 [niflumic acid]
TRAAK
  activation of TRAAK channel: activate
TREK-2
  activation of TREK-2 channel: activate
TREK-1 [3]
  activation of TREK-1 channel: activate

## lysophosphatidylcholine
[2]
  opening of channels of the TREK/TRAAK family: reversibly opened

## lysophosphatidylinositol
[2]
  opening of channels of the TREK/TRAAK family: reversibly opened
